Measurements as given in ChEMBL document CHEMBL5723582, “Data for DCP probe T-10430” (2024).

Key:
[1] = biological target: Neuropeptide Y receptor type 2 (Homo sapiens) (UniProt P49146); assay: RLU of NPY2R at 1.0 µM in the […] PRESTO-Tango GPCRome screen; conditions: Compound concentration 1.0 uM
[2] = biological target: Neuromedin-U receptor 2 (Homo sapiens) (UniProt Q9GZQ4); assay: RLU of NMUR2 at 1.0 µM in the […] PRESTO-Tango GPCRome screen; conditions: Compound concentration 1.0 uM
[3] = biological target: Probable G-protein coupled receptor 85 (Homo sapiens) (UniProt P60893); assay: RLU of GPR85 at 1.0 µM in the […] PRESTO-Tango GPCRome screen; conditions: Compound concentration 1.0 uM
[4] = biological target: Glucagon-like peptide 2 receptor (Homo sapiens) (UniProt O95838); assay: RLU of GLP2R at 1.0 µM in the […] PRESTO-Tango GPCRome screen; conditions: Compound concentration 1.0 uM
[5] = biological target: T1, Leukotriene B4 receptor 1 (Homo sapiens, UniProt Q15722); assay: IP-One assay (LTB4R), agonist mode at up to 50 µM; type: functional; design: compound concentration < 50 uM
[6] = biological target: Melanocyte-stimulating hormone receptor (Homo sapiens) (UniProt Q01726); assay: RLU of MC1R at 1.0 µM in the […] PRESTO-Tango GPCRome screen; conditions: Compound concentration 1.0 uM
[7] = biological target: Probable G-protein coupled receptor 152 (Homo sapiens) (UniProt Q8TDT2); assay: RLU of GPR152 at 1.0 µM in the […] PRESTO-Tango GPCRome screen; conditions: Compound concentration 1.0 uM
[8] = biological target: Alpha-2B adrenergic receptor (Homo sapiens) (UniProt P18089); assay: RLU of ADRA2B at 1.0 µM in the […] PRESTO-Tango GPCRome screen; conditions: Compound concentration 1.0 uM
[9] = biological target: G-protein coupled receptor 15 (Homo sapiens) (UniProt P49685); assay: RLU of GPR15 at 1.0 µM in the […] PRESTO-Tango GPCRome screen; conditions: Compound concentration 1.0 uM
[10] = biological target: Prostaglandin F2-alpha receptor (Homo sapiens) (UniProt P43088); assay: RLU of PTGFR at 1.0 µM in the […] PRESTO-Tango GPCRome screen; conditions: Compound concentration 1.0 uM
[11] = biological target: Somatostatin receptor type 5 (Homo sapiens) (UniProt P35346); assay: RLU of SSTR5 at 1.0 µM in the […] PRESTO-Tango GPCRome screen; conditions: Compound concentration 1.0 uM
[12] = biological target: Orexin receptor type 1 (Homo sapiens) (UniProt O43613); assay: RLU of HCTR1 at 1.0 µM in the Aequorin PRESTO-Tango GPCRome screen; conditions: Compound concentration 1.0 uM
[13] = biological target: 5-hydroxytryptamine receptor 1E (Homo sapiens) (UniProt P28566); assay: RLU of HTR1E at 1.0 µM in the […] PRESTO-Tango GPCRome screen; conditions: Compound concentration 1.0 uM
[14] = biological target: Probable G-protein coupled receptor 25 (Homo sapiens) (UniProt O00155); assay: RLU of GPR25 at 1.0 µM in the […] PRESTO-Tango GPCRome screen; conditions: Compound concentration 1.0 uM
[15] = biological target: Somatostatin receptor type 4 (Homo sapiens) (UniProt P31391); assay: RLU of SSTR4 at 1.0 µM in the […] PRESTO-Tango GPCRome screen; conditions: Compound concentration 1.0 uM
[16] = biological target: Type-1 angiotensin II receptor (Homo sapiens, UniProt P30556); assay: IP-One assay (AGTR1), antagonist mode at up to 50 µM ( vs. 10 nM Val5-Angiotensin II); type: functional; design: compound concentration < 50 uM
[17] = biological target: Adenosine receptor A2a (Homo sapiens) (UniProt P29274); assay: RLU of ADORA2A at 1.0 µM in the […] PRESTO-Tango GPCRome screen; conditions: Compound concentration 1.0 uM
[18] = biological target: Neuromedin-U receptor 1 (Homo sapiens) (UniProt Q9HB89); assay: RLU of NMUR1 at 1.0 µM in the […] PRESTO-Tango GPCRome screen; conditions: Compound concentration 1.0 uM
[19] = biological target: Adhesion G protein-coupled receptor F5 (Homo sapiens) (UniProt Q8IZF2); assay: RLU of GPR116 at 1.0 µM in the […] PRESTO-Tango GPCRome screen; conditions: Compound concentration 1.0 uM
[20] = biological target: Sphingosine 1-phosphate receptor 1 (Homo sapiens) (UniProt P21453); assay: RLU of S1PR1 at 1.0 µM in the […] PRESTO-Tango GPCRome screen; conditions: Compound concentration 1.0 uM
[21] = biological target: T1, Leukotriene B4 receptor 1; assay: RLU of LTB4R at 1.0 µM in the […] PRESTO-Tango GPCRome screen; conditions: Compound concentration 1.0 uM
[22] = biological target: Free fatty acid receptor 1 (Homo sapiens) (UniProt O14842); assay: RLU of FFA1 (GPR40) at 1.0 µM in the […] PRESTO-Tango GPCRome screen; conditions: Compound concentration 1.0 uM
[23] = biological target: Glucagon receptor (Homo sapiens) (UniProt P47871); assay: RLU of GCGR at 1.0 µM in the […] PRESTO-Tango GPCRome screen; conditions: Compound concentration 1.0 uM
[24] = biological target: Adenosine receptor A1 (Homo sapiens) (UniProt P30542); assay: RLU of ADORA1 at 1.0 µM in the […] PRESTO-Tango GPCRome screen; conditions: Compound concentration 1.0 uM
[25] = biological target: Neuropeptides B/W receptor type 2 (Homo sapiens) (UniProt P48146); assay: RLU of NPBW2 at 1.0 µM in the […] PRESTO-Tango GPCRome screen; conditions: Compound concentration 1.0 uM
[26] = biological target: C-X-C chemokine receptor type 3 (Homo sapiens) (UniProt P49682); assay: RLU of CXCR3 at 1.0 µM in the […] PRESTO-Tango GPCRome screen; conditions: Compound concentration 1.0 uM
[27] = biological target: Lysophosphatidic acid receptor 5 (Homo sapiens) (UniProt Q9H1C0); assay: RLU of LPAR5 at 1.0 µM in the […] PRESTO-Tango GPCRome screen; conditions: Compound concentration 1.0 uM
[28] = biological target: G-protein coupled receptor 143 (Homo sapiens) (UniProt P51810); assay: RLU of GPR143 at 1.0 µM in the […] PRESTO-Tango GPCRome screen; conditions: Compound concentration 1.0 uM
[29] = biological target: Cysteinyl leukotriene receptor 2 (Homo sapiens) (UniProt Q9NS75); assay: RLU of CYSLTR2 at 1.0 µM in the […] PRESTO-Tango GPCRome screen; conditions: Compound concentration 1.0 uM
[30] = biological target: S-geranylgeranyl-glutathione receptor P2RY8 (Homo sapiens) (UniProt Q86VZ1); assay: RLU of P2RY8 at 1.0 µM in the […] PRESTO-Tango GPCRome screen; conditions: Compound concentration 1.0 uM
[31] = biological target: Extracellular calcium-sensing receptor (Homo sapiens) (UniProt P41180); assay: RLU of CASR at 1.0 µM in the […] PRESTO-Tango GPCRome screen; conditions: Compound concentration 1.0 uM
[32] = biological target: G-protein coupled receptor 26 (Homo sapiens) (UniProt Q8NDV2); assay: RLU of GPR26 at 1.0 µM in the […] PRESTO-Tango GPCRome screen; conditions: Compound concentration 1.0 uM
[33] = biological target: Adenosine receptor A2b (Homo sapiens) (UniProt P29275); assay: RLU of ADORA2B at 1.0 µM in the […] PRESTO-Tango GPCRome screen; conditions: Compound concentration 1.0 uM
[34] = biological target: G protein-coupled receptor 88 (Homo sapiens) (UniProt Q9GZN0); assay: RLU of GPR88 at 1.0 µM in the […] PRESTO-Tango GPCRome screen; conditions: Compound concentration 1.0 uM
[35] = biological target: Probable G-protein coupled receptor 21 (Homo sapiens) (UniProt Q99679); assay: RLU of GPR21 at 1.0 µM in the […] PRESTO-Tango GPCRome screen; conditions: Compound concentration 1.0 uM

T1 sequence (Q15722 whole entry): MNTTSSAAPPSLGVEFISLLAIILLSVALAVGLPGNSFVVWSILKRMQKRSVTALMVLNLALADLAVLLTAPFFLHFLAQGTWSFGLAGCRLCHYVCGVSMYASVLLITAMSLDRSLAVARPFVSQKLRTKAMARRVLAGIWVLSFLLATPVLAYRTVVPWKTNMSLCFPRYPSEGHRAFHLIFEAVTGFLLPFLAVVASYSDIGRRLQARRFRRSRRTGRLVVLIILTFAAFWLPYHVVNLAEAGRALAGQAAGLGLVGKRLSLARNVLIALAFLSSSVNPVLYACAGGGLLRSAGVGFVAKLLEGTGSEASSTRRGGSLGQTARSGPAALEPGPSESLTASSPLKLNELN
Sequence of Melanocyte-stimulating hormone receptor (Homo sapiens) (Q01726 whole entry, looked up): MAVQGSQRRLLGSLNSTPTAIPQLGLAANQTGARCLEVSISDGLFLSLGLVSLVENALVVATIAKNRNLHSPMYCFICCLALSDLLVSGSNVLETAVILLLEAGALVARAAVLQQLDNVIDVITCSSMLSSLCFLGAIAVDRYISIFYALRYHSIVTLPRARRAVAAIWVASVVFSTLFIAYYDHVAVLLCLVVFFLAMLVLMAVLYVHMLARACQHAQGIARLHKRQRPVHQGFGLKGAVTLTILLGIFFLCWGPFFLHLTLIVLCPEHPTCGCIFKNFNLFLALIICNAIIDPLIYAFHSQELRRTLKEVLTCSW
Sequence of S-geranylgeranyl-glutathione receptor P2RY8 (Homo sapiens) (Q86VZ1 whole entry): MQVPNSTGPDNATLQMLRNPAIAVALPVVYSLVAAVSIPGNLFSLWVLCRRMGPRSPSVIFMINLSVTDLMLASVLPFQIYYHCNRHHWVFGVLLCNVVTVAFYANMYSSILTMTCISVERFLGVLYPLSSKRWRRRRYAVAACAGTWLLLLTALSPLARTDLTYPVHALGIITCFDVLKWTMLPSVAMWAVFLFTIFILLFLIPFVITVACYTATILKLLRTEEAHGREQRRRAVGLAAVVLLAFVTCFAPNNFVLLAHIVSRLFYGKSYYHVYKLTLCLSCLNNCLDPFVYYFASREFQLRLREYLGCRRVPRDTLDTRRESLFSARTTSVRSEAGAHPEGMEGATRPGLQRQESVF
Sequence of 5-hydroxytryptamine receptor 1E (Homo sapiens) (P28566 whole entry): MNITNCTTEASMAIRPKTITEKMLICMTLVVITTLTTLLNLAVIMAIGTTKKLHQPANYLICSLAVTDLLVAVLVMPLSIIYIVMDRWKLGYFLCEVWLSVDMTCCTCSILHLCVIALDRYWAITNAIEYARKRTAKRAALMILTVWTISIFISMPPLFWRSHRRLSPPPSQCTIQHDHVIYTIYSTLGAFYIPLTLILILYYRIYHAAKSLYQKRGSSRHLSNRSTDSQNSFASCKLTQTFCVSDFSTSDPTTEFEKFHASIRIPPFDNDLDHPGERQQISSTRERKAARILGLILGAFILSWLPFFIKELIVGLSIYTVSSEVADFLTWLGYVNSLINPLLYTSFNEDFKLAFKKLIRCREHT
Sequence of Neuropeptides B/W receptor type 2 (Homo sapiens) (P48146 whole entry): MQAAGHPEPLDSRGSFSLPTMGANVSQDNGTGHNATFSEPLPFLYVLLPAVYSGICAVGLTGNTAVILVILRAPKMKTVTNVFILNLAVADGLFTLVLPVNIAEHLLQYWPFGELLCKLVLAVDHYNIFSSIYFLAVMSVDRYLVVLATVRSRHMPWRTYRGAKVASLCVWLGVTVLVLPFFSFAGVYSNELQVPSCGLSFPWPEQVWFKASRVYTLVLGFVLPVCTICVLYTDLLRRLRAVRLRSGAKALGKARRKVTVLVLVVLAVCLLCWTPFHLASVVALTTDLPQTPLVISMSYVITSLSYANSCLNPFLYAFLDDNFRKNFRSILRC
Sequence of Somatostatin receptor type 4 (Homo sapiens) (P31391 whole entry): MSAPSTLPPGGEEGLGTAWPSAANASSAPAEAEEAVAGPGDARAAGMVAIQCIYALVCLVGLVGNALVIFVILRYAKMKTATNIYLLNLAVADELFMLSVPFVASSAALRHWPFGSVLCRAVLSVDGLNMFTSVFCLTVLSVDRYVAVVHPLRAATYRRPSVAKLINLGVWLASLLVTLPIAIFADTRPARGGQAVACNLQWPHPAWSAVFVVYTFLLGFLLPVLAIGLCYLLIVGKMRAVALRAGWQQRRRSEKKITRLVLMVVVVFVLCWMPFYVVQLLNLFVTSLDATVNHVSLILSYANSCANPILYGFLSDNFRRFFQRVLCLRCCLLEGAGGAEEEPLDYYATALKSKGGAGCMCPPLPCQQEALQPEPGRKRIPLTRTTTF
Sequence of Sphingosine 1-phosphate receptor 1 (Homo sapiens) (P21453 whole entry): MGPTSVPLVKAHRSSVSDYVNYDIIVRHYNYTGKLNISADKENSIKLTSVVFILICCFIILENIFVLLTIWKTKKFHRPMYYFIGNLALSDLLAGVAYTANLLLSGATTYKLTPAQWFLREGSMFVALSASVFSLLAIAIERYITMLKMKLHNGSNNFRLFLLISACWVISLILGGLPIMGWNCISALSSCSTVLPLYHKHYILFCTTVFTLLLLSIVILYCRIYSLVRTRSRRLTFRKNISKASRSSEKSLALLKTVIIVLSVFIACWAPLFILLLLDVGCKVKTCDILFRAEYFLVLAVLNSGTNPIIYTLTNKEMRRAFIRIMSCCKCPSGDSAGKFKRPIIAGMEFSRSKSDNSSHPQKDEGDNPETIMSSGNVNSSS
Sequence of Type-1 angiotensin II receptor (P30556 whole entry): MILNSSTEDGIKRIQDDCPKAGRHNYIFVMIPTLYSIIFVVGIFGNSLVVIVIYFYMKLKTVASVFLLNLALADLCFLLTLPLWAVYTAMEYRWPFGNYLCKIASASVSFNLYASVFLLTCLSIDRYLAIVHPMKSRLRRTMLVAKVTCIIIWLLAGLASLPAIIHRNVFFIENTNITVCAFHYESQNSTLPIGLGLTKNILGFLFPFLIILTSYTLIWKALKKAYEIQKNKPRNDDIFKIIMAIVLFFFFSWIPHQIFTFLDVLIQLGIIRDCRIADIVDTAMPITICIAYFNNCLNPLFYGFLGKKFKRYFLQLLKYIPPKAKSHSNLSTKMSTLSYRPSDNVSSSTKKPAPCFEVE
Sequence of Somatostatin receptor type 5 (Homo sapiens) (P35346 whole entry): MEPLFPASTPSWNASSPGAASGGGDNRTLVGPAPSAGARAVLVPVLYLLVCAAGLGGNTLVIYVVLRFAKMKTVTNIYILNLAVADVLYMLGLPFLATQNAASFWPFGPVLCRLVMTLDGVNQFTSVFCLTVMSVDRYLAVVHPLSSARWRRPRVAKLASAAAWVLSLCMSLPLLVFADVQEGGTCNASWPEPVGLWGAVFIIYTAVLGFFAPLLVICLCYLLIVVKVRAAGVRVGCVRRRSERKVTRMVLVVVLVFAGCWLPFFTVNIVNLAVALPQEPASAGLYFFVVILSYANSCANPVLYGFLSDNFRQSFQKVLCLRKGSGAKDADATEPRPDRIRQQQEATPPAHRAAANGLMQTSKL
Sequence of Cysteinyl leukotriene receptor 2 (Homo sapiens) (Q9NS75 whole entry): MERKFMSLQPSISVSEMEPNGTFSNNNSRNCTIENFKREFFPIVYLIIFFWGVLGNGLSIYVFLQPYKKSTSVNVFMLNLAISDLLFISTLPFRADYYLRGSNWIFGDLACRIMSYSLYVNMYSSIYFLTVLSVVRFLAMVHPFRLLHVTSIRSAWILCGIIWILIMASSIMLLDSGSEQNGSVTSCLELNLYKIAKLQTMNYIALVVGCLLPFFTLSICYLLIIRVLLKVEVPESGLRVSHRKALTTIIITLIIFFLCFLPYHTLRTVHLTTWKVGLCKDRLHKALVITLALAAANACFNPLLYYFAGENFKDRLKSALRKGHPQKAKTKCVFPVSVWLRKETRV
Sequence of Neuromedin-U receptor 1 (Homo sapiens) (Q9HB89 whole entry): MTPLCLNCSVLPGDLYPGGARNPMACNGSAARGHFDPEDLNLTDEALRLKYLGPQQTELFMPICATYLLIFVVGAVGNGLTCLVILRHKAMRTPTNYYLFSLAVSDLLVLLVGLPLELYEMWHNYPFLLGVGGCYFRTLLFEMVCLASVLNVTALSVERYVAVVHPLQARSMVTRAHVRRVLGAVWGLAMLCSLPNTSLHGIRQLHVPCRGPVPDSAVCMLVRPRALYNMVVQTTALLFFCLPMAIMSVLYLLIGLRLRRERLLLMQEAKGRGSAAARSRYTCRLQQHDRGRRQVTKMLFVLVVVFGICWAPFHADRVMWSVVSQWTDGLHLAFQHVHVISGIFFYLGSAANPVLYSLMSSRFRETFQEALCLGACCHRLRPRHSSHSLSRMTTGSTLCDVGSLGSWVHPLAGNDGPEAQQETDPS
Sequence of Probable G-protein coupled receptor 152 (Homo sapiens) (Q8TDT2 whole entry): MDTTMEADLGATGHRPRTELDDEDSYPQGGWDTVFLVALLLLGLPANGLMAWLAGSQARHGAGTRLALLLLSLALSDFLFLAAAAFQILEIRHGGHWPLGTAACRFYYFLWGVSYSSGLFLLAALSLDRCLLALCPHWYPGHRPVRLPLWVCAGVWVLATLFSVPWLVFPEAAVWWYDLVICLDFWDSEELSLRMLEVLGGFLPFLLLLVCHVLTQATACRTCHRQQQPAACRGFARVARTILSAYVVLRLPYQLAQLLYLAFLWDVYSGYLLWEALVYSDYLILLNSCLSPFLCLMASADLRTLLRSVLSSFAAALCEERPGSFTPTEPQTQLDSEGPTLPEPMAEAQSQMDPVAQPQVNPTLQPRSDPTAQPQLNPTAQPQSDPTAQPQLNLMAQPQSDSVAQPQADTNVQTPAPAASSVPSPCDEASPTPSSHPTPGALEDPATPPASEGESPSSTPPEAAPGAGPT
Sequence of C-X-C chemokine receptor type 3 (Homo sapiens) (P49682 whole entry): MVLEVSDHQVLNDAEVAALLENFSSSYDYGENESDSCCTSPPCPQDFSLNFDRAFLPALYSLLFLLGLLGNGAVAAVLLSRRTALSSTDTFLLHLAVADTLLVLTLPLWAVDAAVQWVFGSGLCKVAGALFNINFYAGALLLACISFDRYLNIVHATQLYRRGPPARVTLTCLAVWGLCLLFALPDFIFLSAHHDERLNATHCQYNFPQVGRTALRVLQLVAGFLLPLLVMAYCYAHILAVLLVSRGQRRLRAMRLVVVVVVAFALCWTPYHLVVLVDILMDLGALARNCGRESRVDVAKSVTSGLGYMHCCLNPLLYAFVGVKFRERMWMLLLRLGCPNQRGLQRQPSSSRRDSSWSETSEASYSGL

Compound `CCCCC(=O)N1CC2(C1)CN(c1ccccc1-c1nnn[nH]1)C2` has an RLU [1] of 559, an RLU [2] of 710 and an RLU [3] of -4210. For the same compound, the RLU [4] was -2690, the EC50 [5] was > 50 µM (not active) and the RLU [6] was -1890. For the same compound, the RLU [7] was -70, the RLU [8] was 17900 and the RLU [9] was 1710. The RLU [10] was -81.2, the RLU [11] was -946 and the RLU [12] was -2840. The RLU [13] was -638, the RLU [14] was -1210 and the RLU [15] was 120. The EC50 [16] was > 50 µM (not active), the RLU [17] was 1000 and the RLU [18] was 1950. The RLU [19] was -663, the RLU [20] was 11000 and the RLU [21] was -270. It also gave an RLU [22] of 2090, an RLU [23] of 1330 and an RLU [24] of 6200. For the same compound, the RLU [25] was -872, the RLU [26] was -568 and the RLU [27] was 471. For the same compound, the RLU [28] was -2070, the RLU [29] was -3190 and the RLU [30] was 1330. For the same compound, the RLU [31] was 4400, the RLU [32] was -187 and the RLU [33] was 6490. It also gave an RLU [34] of 162 and an RLU [35] of -483.
